Entries after “also recorded” stand apart in the source; their conditions may differ.
Legend:
[1] = target: T1, human 5-HT2BR (Homo sapiens, UniProt P41595); assay: Functionality assay, HTRF quantification of IP1 accumulation in CHO-K1 cells; type: cell-based
T1 construct: 355260 (IP1); host or cells: CHO-K1

[2] = target: T2, 5-HT2CR (Homo sapiens, UniProt P28335); assay: Functionality assay, [35S]GTPγS binding; type: biochemical; conditions: inhibition of 5-HT (100 nM) induced [35S]GTPγS binding; read-out: IC50, antagonistic activity, human 5-HT2C
T2 construct: 355200 (GTPγS); host or cells: CHO-K1
Protocol: The binding profile of AM1476 was evaluated for binding to human 5‐HT2AR, 5‐HT2BR, and 5‐HT2CR in radioligand binding assays using Chinese hamster ovary (CHO‐K1) cells overexpressing human receptors (in vitro assays 271650, 271700, and 271800; Eurofins Panlabs Discovery). AM1476 was evaluated at 0.1, 1, 10, 100, 1,000, and 10,000 nM (5‐HT2BR) or at 1, 10, 100, 1,000, and 10,000 nM (5‐HT2AR and 5‐HT2CR). Human 5‐HT2AR and 5‐HT2BR functionality was measured with homogeneous time‐resolved fluorescence quantification of IP1 accumulation in CHO‐K1 cells (in vitro assays 355250 and 355260). Compounds creating a ≥50% inhibition of 5‐HT (5 nM) induced fluorescence response specified receptor antagonist activity. 5‐HT2CR functionality was assessed with [35S] GTPγS for quantification of bound GTPγS. Compounds creating a ≥50% inhibition of 5‐HT (100 nM) induced [35S] GTPγS binding response specified receptor antagonist activity (in vitro assay 355200). AM1476 was evaluated at 0.1, 0.3, 1, 3, 10, 30, and 300 nM (5‐HT2BR) or 1, 10, 100, 1,000, and 10,000 nM (5‐HT2AR and 5‐HT2CR). […] Mouse 5‐HT2BR functionality was measured in a calcium influx assay (Charles River) in CHO‐KI cells expressing the mouse 5‐HT2BR using a calcium sensitive dye and a fluorescence imaging plate reader (FLIPRTETRA) instrument. AM1476 was evaluated at 0.3, 1, 3, 10, 30, 100, 300, and 1,000 nM.

[3] = target: T3, Serotonin (5-Hydroxytryptamine) 5-HT1B (hu) (Homo sapiens, UniProt P28222); assay: Receptor binding, Eurofins Panlabs 271200
T3 construct: Eurofins Panlabs 271200
From the text: (§1) Effects were considered significant if AM1476's mean value was three or more SDs above the vehicle control mean in the agonist assay or three or more SDs below the positive control agonist (5‐nM α‐methylserotonin) mean in the antagonist assay. AM1476 was screened for selectivity against approximately 200 targets using a Eurofins Panlabs Spectrum screen panel including enzymatic and receptor binding assays.

[4] = target: T4, Adrenergic α1D (hu) (Homo sapiens, UniProt P25100); assay: Functionality assay, IP1, Eurofins Panlabs 302080; type: cell-based
T4 construct: Eurofins Panlabs 302080

[5] = target: T5, Histamine H1 (hu) (Homo sapiens, UniProt P35367); assay: Functionality assay, GTPγS Binding, Eurofins Panlabs 313200; type: biochemical
T5 construct: Eurofins Panlabs 313200
From the text: as §1

[6] = target: T6, Serotonin 5-HT6 (hu) (Homo sapiens, UniProt P50406); assay: Functionality assay, Adenylyl Cyclase, Eurofins Panlabs 318000; type: cell-based
T6 construct: 318000 (adenylyl cyclase)
From the text: as §1

[7] = target: T7, Uptake, Norepinephrine (hu) (Homo sapiens, UniProt P23975); assay: Functionality assay, Uptake, Eurofins Panlabs 302000; type: cell-based
T7 construct: Eurofins Panlabs 302000
From the text: as §1

[8] = tested on: healthy individuals; assay: Phase 1 clinical trial, safety, tolerability and pharmacokinetic profile (NCT04691115); type: in vivo, human; conditions: for Any adverse event / Depressed level of consciousness / Dizziness / Gastrointestinal disorders / Headache / Nausea / Nervous system disorders / Presyncope / Serious adverse event / Syncope: fasted, N = 6
From the text: These findings prompted us to perform a phase 1 clinical trial investigating safety, tolerability, and the pharmacokinetic profile of AM1476 in healthy individuals (ClinicalTrials.gov identifier NCT04691115). […] An excerpt of the summary of adverse events is found in Supplementary Table S5. […] The anticipated clinical efficacy exposure was well covered by investigated doses.

[9] = Pharmacokinetic profile (no method given)
[10] = cGvHD mice, 28 days repeated oral once daily administration
Protocol: After repeated oral administration for 28 days, whole blood was collected from each treatment group 15 minutes, 30 minutes, and 1, 2, 4, 6, 8, and 24 hours after a final morning dose (two animals were used for each time point), and plasma was separated from blood within 30 minutes.

T1 sequence (P41595 whole entry): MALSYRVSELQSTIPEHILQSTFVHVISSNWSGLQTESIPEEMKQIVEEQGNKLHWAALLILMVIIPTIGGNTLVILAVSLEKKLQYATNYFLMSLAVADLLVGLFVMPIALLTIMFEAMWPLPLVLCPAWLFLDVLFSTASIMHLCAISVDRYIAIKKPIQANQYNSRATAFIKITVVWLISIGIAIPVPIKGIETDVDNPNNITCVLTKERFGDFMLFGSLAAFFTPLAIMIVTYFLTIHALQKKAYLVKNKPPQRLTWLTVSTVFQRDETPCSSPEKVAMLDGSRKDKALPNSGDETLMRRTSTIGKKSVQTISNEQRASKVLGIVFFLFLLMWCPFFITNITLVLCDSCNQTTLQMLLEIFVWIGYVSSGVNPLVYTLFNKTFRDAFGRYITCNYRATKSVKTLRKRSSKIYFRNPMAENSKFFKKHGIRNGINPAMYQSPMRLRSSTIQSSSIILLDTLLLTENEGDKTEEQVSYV
T6 sequence (P50406 whole entry): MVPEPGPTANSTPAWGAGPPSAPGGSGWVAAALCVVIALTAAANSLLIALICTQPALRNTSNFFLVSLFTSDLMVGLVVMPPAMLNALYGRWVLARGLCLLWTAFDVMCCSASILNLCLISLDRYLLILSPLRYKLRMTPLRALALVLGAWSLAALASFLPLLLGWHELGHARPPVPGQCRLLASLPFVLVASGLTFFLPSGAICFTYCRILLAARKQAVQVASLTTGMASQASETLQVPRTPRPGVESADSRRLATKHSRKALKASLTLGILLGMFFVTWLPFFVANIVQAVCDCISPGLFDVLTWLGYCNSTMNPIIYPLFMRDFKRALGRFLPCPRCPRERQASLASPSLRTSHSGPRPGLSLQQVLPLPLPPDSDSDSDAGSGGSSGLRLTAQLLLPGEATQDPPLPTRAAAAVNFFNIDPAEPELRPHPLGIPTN
T5 sequence (P35367 whole entry): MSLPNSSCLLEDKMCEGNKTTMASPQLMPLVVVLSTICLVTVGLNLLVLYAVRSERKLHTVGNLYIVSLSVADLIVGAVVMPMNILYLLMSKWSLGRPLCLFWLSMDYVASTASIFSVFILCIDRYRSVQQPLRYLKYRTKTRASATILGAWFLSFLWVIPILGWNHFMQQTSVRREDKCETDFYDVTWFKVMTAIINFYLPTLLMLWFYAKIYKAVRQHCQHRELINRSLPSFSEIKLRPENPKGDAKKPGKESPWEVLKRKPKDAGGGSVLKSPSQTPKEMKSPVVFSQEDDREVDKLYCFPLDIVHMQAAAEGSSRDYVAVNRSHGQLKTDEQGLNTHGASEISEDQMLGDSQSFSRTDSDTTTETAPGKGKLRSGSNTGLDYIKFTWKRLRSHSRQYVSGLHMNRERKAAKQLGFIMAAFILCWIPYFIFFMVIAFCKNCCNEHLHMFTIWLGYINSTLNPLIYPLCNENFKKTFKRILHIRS
T4 sequence (P25100 whole entry): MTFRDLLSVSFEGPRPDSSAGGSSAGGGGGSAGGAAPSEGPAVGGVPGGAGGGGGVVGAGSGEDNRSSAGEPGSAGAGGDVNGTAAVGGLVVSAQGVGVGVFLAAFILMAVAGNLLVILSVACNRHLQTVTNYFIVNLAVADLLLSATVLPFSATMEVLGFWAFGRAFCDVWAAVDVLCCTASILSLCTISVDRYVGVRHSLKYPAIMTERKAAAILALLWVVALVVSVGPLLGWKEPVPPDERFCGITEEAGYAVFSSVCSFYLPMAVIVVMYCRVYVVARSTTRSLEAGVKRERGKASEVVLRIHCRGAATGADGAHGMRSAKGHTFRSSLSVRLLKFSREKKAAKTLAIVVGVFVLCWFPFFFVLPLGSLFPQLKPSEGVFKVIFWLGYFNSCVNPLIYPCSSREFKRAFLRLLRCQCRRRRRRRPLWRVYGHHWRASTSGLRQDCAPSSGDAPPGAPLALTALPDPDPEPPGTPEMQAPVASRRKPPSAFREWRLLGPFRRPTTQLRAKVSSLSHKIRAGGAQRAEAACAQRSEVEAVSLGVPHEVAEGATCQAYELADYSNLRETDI
T3 sequence (P28222 whole entry): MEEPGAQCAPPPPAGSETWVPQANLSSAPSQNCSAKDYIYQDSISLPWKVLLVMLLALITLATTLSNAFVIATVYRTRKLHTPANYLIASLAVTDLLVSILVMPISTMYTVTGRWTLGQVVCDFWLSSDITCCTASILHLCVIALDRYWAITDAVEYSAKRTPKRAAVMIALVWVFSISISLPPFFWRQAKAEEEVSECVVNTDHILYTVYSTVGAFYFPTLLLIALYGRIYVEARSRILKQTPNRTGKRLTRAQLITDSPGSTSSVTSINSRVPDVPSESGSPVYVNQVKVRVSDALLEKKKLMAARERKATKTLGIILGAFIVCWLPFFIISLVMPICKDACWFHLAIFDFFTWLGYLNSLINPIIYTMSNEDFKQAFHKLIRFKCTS
T7 sequence (P23975 whole entry): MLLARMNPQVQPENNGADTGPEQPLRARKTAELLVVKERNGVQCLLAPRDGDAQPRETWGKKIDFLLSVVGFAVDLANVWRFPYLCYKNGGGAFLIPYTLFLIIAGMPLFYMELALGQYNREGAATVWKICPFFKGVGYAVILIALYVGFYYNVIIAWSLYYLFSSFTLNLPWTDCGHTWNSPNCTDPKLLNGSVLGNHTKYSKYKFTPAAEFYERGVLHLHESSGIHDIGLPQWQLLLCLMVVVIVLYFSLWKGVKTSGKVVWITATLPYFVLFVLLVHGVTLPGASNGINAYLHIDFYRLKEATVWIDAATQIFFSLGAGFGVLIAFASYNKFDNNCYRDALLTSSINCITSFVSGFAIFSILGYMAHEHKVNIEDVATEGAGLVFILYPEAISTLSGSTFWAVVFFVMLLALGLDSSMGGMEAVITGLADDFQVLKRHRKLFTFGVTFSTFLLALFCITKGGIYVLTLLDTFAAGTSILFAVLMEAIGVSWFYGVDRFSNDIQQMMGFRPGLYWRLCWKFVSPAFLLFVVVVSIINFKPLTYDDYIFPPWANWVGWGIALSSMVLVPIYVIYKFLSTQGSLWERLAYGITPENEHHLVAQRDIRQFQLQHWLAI
T2 sequence (P28335 33-458): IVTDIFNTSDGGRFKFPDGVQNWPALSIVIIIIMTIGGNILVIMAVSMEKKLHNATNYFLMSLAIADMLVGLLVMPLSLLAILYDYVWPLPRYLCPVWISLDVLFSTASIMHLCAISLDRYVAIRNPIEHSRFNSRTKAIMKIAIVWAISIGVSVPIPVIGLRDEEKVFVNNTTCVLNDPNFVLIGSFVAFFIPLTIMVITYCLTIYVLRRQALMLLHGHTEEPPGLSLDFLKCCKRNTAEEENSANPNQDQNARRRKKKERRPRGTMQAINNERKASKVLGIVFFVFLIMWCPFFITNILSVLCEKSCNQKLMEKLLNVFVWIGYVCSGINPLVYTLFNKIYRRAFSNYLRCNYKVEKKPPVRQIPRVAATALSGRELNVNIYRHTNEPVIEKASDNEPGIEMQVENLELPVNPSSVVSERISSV

In the case of `C[C@@H]1CN(C(=N)N)N=C1c1ccc(F)cc1O` [AM1476], the “agonistic activity at 5-HT2BR” value [1] is reported as “devoid of agonistic activity; also recorded: no agonism”, the IC50 ([1]; inhibition of 5-HT (5 nM) induced IP1 response, CHO-K1, read-out: IC50, antagonistic activity, human 5-HT2B) is reported as 0.0058 µM and the IC50 [2] is reported as 3.1 µM. The “% Inhibition at 10 µM, 5-HT1B (hu)” value [3] was 19%, the IC50 [4] was 7.76 µM and the “agonistic activity, Adrenergic α1D” value ([4]; at 30 µM) was “No significant agonistic activity at 30 µM”. The IC50 [5] was 28 µM, the “agonistic activity, Histamine H1” value ([5]; at 30 µM) was “No significant agonistic activity at 30 µM” and the IC50 [6] was 4.55 µM. The “agonistic activity, Serotonin 5-HT6” value ([6]; at 30 µM) was “No significant agonistic activity at 30 µM”, the IC50 [7] was 3.78 µM and the Any adverse event ([8]; 375 mg BID) was 2 (33.3%) no. of subjects (%). For the same molecule, the “Depressed level of consciousness” value ([8]; 375 mg BID) was 0 no. of subjects (%), the Dizziness ([8]; 375 mg BID) was 1 (16.7%) no. of subjects (%) and the Gastrointestinal disorders ([8]; 375 mg BID) was 2 (33.3%) no. of subjects (%). The Headache ([8]; 375 mg BID) was 2 (33.3%) no. of subjects (%), the Nausea ([8]; 375 mg BID) was 2 (33.3%) no. of subjects (%) and the Nervous system disorders ([8]; 375 mg BID) was 2 (33.3%) no. of subjects (%). The Presyncope ([8]; 375 mg BID) was 0 no. of subjects (%), the Serious adverse event ([8]; 375 mg BID) was 0 no. of subjects (%) and the Syncope ([8]; 375 mg BID) was 0 no. of subjects (%). The Any adverse event ([8]; 500 mg BID) was 4 (66.7%) no. of subjects (%), the “Depressed level of consciousness” value ([8]; 500 mg BID) was 0 no. of subjects (%) and the Dizziness ([8]; 500 mg BID) was 1 (16.7%) no. of subjects (%). For the same molecule, the Gastrointestinal disorders ([8]; 500 mg BID) was 1 (16.7%) no. of subjects (%), the Headache ([8]; 500 mg BID) was 1 (16.7%) no. of subjects (%) and the Nausea ([8]; 500 mg BID) was 1 (16.7%) no. of subjects (%). For the same molecule, the Nervous system disorders ([8]; 500 mg BID) was 2 (33.3%) no. of subjects (%), the Presyncope ([8]; 500 mg BID) was 0 no. of subjects (%) and the Serious adverse event ([8]; 500 mg BID) was 0 no. of subjects (%). The Syncope ([8]; 500 mg BID) was 0 no. of subjects (%), the serious adverse events ([8]; healthy individuals) was “no serious adverse events were reported” and the “severity of adverse events” value ([8]; healthy individuals) was “most of the adverse events were mild in severity”. For the same molecule, the tolerability ([8]; healthy individuals) was “well tolerated”, the “time to steady state” value ([8]; multiple-dose period) was “by day two” and the absorption ([8]; single and multiple oral administration, fasted state) was “rapidly absorbed”. For the same molecule, the “distribution to the brain” value [9] was “no preference to distribute to the brain”, the oral bioavailability [9] was “orally bioavailable” and the “level of systemic exposure (free plasma concentration) vs IC50 of mouse 5-HT2BR antagonistic activity” value [10] was “exceeded the IC50”.
